{
  "source": "ChEMBL document CHEMBL1201862",
  "about": "“PubChem BioAssay data set” (2004)",
  "key": {"Vero [1]": {"test_system": "Vero", "assay": "cytotoxicity of synthesized analogs in Vero 76, SAR follow-up, cytotoxicity control for West Nile virus antiviral project, Vero 76 cells (AID 2414)", "type": "functional", "conditions": "Chlorocebus sabaeus"}, "Vero [2]": {"test_system": "Vero", "assay": "cytotoxicity of synthesized analogs in Vero cells, SAR follow-up, cytotoxicity control for West Nile virus antiviral project, cell-based, set II (AID 2402)", "type": "functional", "conditions": "Chlorocebus sabaeus"}, "Vero [3]": {"test_system": "Vero", "assay": "Vero E6 cell cytotoxicity, SAR follow-up, cytotoxicity control for West Nile virus antiviral project, synthesized analogs (AID 2244)", "type": "functional", "conditions": "Chlorocebus sabaeus"}, "[4]": {"assay": "A Cell Based Assay for the Identification of Probe candidate Compounds with Anti- Venezuelan Equine Encephalitis virus. [Related pubchem assays: 2409, 2419, 1621, 2238, 2405, 2024, 2065, 2402, 2414, 1635, 1650, 2244 ]", "type": "functional"}, "Vero [5]": {"test_system": "Vero", "assay": "West Nile virus CPE inhibition, SAR follow-up, cell-based, synthesized analogs (AID 2238)", "type": "functional", "conditions": "Chlorocebus sabaeus"}, "Vero [6]": {"test_system": "Vero", "assay": "West Nile virus antiviral activity, cell-based, CPE readout (AID 1621)", "type": "functional", "conditions": "Chlorocebus sabaeus"}, "Vero [7]": {"test_system": "Vero", "assay": "cells", "type": "functional", "conditions": "Chlorocebus sabaeus"}, "Coagulation factor XII": {"target": "T1, Coagulation factor XII (Homo sapiens, UniProt P00748)", "T1 sequence (P00748 whole entry)": "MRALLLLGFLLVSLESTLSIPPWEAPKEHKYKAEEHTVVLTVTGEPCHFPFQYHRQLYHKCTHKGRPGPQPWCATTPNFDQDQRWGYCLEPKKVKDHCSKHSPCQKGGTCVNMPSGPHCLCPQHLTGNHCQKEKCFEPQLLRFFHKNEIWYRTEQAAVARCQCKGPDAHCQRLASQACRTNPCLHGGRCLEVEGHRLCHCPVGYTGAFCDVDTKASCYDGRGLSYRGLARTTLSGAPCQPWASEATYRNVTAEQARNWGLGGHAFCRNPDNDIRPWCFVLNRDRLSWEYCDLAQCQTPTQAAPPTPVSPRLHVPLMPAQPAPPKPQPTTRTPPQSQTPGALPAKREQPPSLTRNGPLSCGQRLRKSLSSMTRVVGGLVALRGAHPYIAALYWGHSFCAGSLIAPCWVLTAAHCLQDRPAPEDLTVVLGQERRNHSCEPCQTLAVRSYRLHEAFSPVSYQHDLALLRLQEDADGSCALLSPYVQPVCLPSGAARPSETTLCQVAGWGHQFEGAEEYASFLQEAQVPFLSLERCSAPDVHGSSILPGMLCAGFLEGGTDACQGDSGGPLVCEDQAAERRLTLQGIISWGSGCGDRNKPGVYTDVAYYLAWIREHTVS", "assay": "FXIIa inhibitor potency, concentration-response, biochemical (AID 716)", "type": "functional"}, "[8]": {"target": "T2, Tyrosine-protein phosphatase non-receptor type 7 (Homo sapiens, UniProt P35236)", "T2 sequence (P35236 whole entry)": "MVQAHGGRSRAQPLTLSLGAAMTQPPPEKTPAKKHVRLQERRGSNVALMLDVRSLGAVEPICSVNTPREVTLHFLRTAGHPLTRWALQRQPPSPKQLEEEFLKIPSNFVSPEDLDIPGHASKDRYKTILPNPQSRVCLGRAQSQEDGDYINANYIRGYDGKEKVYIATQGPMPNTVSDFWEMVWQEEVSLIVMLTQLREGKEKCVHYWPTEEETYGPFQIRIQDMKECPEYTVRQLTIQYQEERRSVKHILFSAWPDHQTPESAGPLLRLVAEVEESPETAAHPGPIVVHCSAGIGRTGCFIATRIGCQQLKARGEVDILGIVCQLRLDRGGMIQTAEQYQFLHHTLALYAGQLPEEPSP", "assay": "SAR analysis of chemical inhibitors of HePTP using a Fluorescent assay - Set 2. [Related pubchem assays (depositor defined):AID1059, AID1077, AID1661, AID2085, AID521]", "type": "functional"}, "[9]": {"target": "Dual specificity protein phosphatase 3 (Homo sapiens, UniProt P51452)", "sequence (P51452 whole entry)": "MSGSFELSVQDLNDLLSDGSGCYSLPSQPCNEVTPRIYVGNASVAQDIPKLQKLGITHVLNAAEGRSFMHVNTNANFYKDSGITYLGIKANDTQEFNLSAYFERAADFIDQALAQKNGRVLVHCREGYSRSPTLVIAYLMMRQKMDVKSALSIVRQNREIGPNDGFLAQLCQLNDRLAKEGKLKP", "assay": "SAR VHR1 Fluorescent Assay for In Vitro dose response studies Set 2. [Related pubchem assays (depositor defined):AID1654, AID1661, AID1878]", "type": "functional"}, "[10]": {"assay": "growth suppression of PTEN-null colon cells, dose response, cell-based, HCT116 PTEN knockout (AID 1047);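 note: HCT116 colon tumor cells with PTEN knocked out; cells exposed to compound for 60 hours before readout; potency for loss of cell viability measured by luminescence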", "type": "functional"}, "[11]": {"assay": "growth suppression of beta-catenin-knockout colon cells, dose response, cell-based, HCT116, human colon tumor (AID 1045);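 note: HCT116 colon tumor cells with beta catenin knocked out; cells exposed to compound for 60 hours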", "type": "functional"}, "[12]": {"target": "G-protein coupled receptor 55 (Homo sapiens, UniProt Q9Y2T6)", "sequence (Q9Y2T6 whole entry)": "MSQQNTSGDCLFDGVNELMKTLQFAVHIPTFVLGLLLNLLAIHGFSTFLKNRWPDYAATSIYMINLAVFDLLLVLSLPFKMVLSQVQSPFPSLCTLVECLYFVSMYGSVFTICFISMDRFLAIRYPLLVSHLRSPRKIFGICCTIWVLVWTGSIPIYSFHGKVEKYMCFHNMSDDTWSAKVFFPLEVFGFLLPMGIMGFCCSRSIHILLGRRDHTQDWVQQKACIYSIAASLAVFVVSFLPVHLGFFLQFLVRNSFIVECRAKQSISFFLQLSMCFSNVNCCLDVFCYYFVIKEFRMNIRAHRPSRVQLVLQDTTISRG", "assay": "GPR55 agonists via beta-arrestin recruitment, primary screen, imaging, U2OS cells, beta-arrestin-GFP redistribution (AID 1961)", "type": "functional"}, "[13]": {"target": "T3, Ubiquitin-conjugating enzyme E2 N (Homo sapiens, UniProt P61088)", "T3 sequence (P61088 whole entry)": "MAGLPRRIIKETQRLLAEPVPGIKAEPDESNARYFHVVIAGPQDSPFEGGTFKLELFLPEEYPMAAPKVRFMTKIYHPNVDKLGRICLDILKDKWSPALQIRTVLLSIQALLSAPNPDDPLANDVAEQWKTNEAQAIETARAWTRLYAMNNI", "type": "functional"}, "[14]": {"target": "Neurotensin receptor type 1 (Homo sapiens, UniProt P30989)", "sequence (P30989 whole entry)": "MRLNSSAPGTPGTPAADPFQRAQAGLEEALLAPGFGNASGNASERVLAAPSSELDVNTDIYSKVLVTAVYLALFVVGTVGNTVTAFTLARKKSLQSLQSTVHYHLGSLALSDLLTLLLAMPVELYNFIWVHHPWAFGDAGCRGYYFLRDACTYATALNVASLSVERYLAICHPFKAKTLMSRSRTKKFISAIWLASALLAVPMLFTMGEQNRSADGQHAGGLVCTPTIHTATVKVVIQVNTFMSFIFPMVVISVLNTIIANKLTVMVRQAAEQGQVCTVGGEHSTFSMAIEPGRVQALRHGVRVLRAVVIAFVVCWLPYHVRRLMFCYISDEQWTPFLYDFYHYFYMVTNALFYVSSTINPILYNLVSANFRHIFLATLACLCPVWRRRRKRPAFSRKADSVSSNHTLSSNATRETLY", "type": "functional"}, "[15]": {"target": "T4, Endoribonuclease toxin MazF (Escherichia coli K-12, UniProt P0AE70)", "T4 sequence (P0AE70 whole entry)": "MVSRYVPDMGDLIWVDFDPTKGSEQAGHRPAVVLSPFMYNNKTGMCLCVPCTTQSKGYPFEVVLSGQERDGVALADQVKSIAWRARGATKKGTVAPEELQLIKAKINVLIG", "assay": "MazF toxin RNase activators, dose response, biochemical, fluorescence, single-stranded RNA substrate, uHTS hits (AID 588481)", "type": "functional"}, "[16]": {"target": "T4, Endoribonuclease toxin MazF", "assay": "fluorescent RNA oligo signal without MazF, dose response, counter-screen for MazEF activator project, biochemical, fluorescence, single-stranded RNase substrate (AID 588502)", "type": "functional"}, "[17]": {"target": "Arf-GAP with SH3 domain, ANK repeat and PH domain-containing protein 1 (Homo sapiens, UniProt Q9ULH1)", "sequence (Q9ULH1 whole entry, the tested form may be a part)": "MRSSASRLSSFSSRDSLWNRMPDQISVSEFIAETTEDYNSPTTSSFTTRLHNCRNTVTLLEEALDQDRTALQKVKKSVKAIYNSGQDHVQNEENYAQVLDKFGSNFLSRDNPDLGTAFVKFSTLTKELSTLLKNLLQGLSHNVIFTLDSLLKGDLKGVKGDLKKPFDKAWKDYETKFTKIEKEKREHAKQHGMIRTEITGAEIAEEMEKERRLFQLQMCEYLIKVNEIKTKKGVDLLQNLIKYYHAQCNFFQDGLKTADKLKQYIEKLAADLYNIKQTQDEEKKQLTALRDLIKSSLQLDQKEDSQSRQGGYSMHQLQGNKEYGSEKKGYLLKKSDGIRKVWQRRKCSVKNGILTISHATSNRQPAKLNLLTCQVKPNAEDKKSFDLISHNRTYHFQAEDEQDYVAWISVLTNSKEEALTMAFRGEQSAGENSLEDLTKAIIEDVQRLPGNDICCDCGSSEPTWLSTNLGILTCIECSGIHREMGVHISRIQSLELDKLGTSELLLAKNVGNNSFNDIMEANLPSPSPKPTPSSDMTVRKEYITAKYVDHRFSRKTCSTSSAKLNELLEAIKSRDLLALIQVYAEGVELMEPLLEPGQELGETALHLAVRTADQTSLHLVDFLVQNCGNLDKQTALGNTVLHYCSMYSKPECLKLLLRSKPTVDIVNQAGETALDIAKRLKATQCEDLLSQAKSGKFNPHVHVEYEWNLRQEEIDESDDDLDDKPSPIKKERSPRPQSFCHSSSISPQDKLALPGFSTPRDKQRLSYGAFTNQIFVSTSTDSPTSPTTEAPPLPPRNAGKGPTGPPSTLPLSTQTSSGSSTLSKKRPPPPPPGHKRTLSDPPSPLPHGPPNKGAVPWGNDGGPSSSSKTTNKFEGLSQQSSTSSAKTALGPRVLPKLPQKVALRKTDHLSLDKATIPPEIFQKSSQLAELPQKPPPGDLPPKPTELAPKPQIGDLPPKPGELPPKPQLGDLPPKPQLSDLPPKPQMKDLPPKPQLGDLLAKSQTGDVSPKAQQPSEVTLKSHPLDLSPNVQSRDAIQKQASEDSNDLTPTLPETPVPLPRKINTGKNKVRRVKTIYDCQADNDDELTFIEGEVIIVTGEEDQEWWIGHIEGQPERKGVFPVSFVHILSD", "type": "functional"}, "[18]": {"assay": "Luminescence Cell-Based Dose Response HTS to Identify Activators of Luciferase Translation or Activity in H4-C Neuroglioblastoma Cells. [Related pubchem assays: 1829 (Project Summary), 1814 (Primary HTS)]", "type": "functional"}, "[19]": {"assay": "Luminescence Cell-Based Dose Retest to Confirm Activators of 5'UTR Stem-Loop Driven Alpha-Synuclein mRNA Translation in H4 Neuroglioblastoma Cells. [Related pubchem assays (depositor defined):AID1813, AID1829]", "type": "functional"}, "[20]": {"assay": "Luminescence Cell-Based Dose Response HTS to Identify Activators of 5'UTR Stem-Loop Driven Prion Protein mRNA Translation in H4-C Neuroglioblastoma Cells. [Related pubchem assays: 1829 (Project Summary), 1814 (Primary HTS)]", "type": "functional"}, "[21]": {"target": "T5, RNA-binding protein pos-1 (Caenorhabditis elegans, UniProt G5EF15)", "T5 sequence (G5EF15 whole entry)": "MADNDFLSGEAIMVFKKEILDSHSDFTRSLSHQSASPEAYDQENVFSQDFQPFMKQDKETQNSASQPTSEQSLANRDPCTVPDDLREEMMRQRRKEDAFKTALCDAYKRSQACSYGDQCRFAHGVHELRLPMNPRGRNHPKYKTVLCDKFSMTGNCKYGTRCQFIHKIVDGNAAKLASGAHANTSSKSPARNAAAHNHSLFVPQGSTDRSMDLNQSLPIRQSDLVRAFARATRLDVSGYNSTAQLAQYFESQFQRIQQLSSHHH", "assay": "inhibitors of POS-1/mex-3 RNA binding, dose response, biochemical, fluorescence polarization (AID 1964);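 note: purified POS-1 fused to maltose binding protein made in E. coli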"}, "[22]": {"assay": "Luminescence Cell-Based Dose Confirmation HTS to Identify Activators of 5'UTR Stem-Loop Driven Alpha-Synuclein mRNA Translation in H4 Neuroglioblastoma Cells. [Related pubchem assays: 1829 (Project Summary), 1814 (Primary HTS)]", "type": "functional"}, "[23]": {"assay": "Luminescence Cell-Based Dose Response HTS to Identify Activators of Luciferase Translation or Activity in H4 […] Cells. [Related pubchem assays: 1829 (Project Summary), 1814 (Primary HTS)]", "type": "functional"}, "H4": {"test_system": "H4", "assay": "Luminescence Cell-Based Dose Response HTS to Identify Activators of 5'UTR Stem-Loop Driven Prion Protein mRNA Translation in H4 Neuroglioblastoma Cells. [Related pubchem assays: 1829 (Project Summary), 1814 (Primary HTS)]", "type": "functional", "conditions": "Homo sapiens"}, "[24]": {"target": "T6, Zinc finger protein mex-5 (Caenorhabditis elegans, UniProt Q9XUB2)", "T6 sequence (Q9XUB2 whole entry)": "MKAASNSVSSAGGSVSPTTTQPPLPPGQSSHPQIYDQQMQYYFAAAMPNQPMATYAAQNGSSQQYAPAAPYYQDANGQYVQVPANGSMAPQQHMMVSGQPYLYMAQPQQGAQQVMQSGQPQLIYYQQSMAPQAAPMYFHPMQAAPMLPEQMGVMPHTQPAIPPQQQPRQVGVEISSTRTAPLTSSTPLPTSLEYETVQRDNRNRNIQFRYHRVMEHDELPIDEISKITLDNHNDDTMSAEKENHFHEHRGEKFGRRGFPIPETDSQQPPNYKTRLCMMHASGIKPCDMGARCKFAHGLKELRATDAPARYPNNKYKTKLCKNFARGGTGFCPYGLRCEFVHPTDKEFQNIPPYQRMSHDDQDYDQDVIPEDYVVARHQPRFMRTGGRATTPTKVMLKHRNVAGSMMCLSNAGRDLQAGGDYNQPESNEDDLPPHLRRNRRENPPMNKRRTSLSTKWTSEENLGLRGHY", "assay": "MEX-5/TCR-2 RNA interaction inhibitors, dose response, biochemical, C. elegans, fluorescence polarization (AID 1960)"}},
  "note": "The source made the active and inactive calls.",
  "data": [
    {"smiles": "CC1CCCN(CCCNC(=O)c2cc3c(s2)-c2ccccc2OC3)C1", "note": "(configuration not stated)", "values": [
      {"measurement": "CC50", "setting": "Vero [1]", "result": "19.6 µM (active)"},
      {"measurement": "CC50", "setting": "Vero [2]", "result": "9.23 µM (active)"},
      {"measurement": "CC50", "setting": "Vero [3]", "result": "6.78 µM (active)"},
      {"measurement": "IC50", "setting": "[4]", "result": "9.94 µM (active)"},
      {"measurement": "IC50", "setting": "Vero [5]", "result": "> 40 µM (active)"},
      {"measurement": "IC50", "setting": "Vero [6]", "result": "18.9 µM (active)"},
      {"measurement": "CC50", "setting": "Vero [7]", "result": "> 25 µM (active)"}
    ]},
    {"smiles": "Cc1nnc(NC(=O)C2CCN(c3cnccn3)CC2)s1", "values": [
      {"measurement": "IC50", "setting": "Coagulation factor XII", "result": "> 50 µM (inactive)"}
    ]},
    {"smiles": "Cc1ccc(-n2c(N)c(C(=O)N3CCOCC3)sc2=S)cc1", "values": [
      {"measurement": "IC50", "setting": "[8]", "result": "> 100 µM (inactive)"},
      {"measurement": "IC50", "setting": "[9]", "result": "> 100 µM (inactive)"}
    ]},
    {"smiles": "COc1cc2c3nnc(-c4ccc(F)cc4)c-3cn(Cc3ccccc3)c2cc1OC", "values": [
      {"measurement": "EC50", "setting": "[10]", "result": "5.91 µM (active)"},
      {"measurement": "EC50", "setting": "[11]", "result": "5.84 µM (active)"},
      {"measurement": "EC50", "setting": "[12]", "result": "0.921 µM (active)"},
      {"measurement": "IC50", "setting": "[13]", "result": "> 20 µM (inactive)"},
      {"measurement": "EC50", "setting": "[14]", "result": "2.91 µM (active)"},
      {"measurement": "EC50", "setting": "[15]", "result": "> 99 µM (inactive)"},
      {"measurement": "EC50", "setting": "[16]", "result": "> 99 µM (inactive)"},
      {"measurement": "IC50", "setting": "[17]", "result": "19.2 µM (inactive)"}
    ]},
    {"smiles": "COc1cc(/C=C2/C(=O)ON=C2C)ccc1OCc1ccccc1F", "values": [
      {"measurement": "EC50", "setting": "[18]", "result": "2.06 µM (active)"},
      {"measurement": "EC50", "setting": "[19]", "result": "0.901 µM (active)"},
      {"measurement": "EC50", "setting": "[20]", "result": "10.3 µM (active)"},
      {"measurement": "EC50", "setting": "[21]", "result": "60.2 µM (active)"},
      {"measurement": "EC50", "setting": "[22]", "result": "0.127 µM (active)"},
      {"measurement": "EC50", "setting": "[23]", "result": "39.6 µM (active)"},
      {"measurement": "EC50", "setting": "H4", "result": "> 120 µM (not active)"},
      {"measurement": "EC50", "setting": "[24]", "result": "> 300 µM (inconclusive)"},
      {"measurement": "CC50", "setting": "Vero [7]", "result": "22.3 µM (active)"}
    ]}
  ]
}
